In patent US6461997B1, “Triazole sulfones having herbicidal activity” (Monsanto Technology LLC, priority 1999, dated 2002):

Tests used:
ABUTH (velvetleaf) = test: Pre-emergence herbicidal activity, warm season; type: in vivo, Abutilon theophrasti; conditions: GR80 = lowest tested rate (300, 100, 30, 10 g/ha) with 80% or greater inhibition; approx. 14 days after treating; 30/21° C.
Protocol: (§1) Tables 5 to 8 summarize results of tests conducted as described below to determine the pre-emergence herbicidal activity, in the form of a GR80 value, of illustrative compounds of this invention. […] Compounds of the invention were typically applied at rates of 300, 100, 30, and 10 g/ha. Where herbicidal activity was evident but 80% inhibition was not achieved at the highest rate tested, an asterisk (*) is shown in the following tables.
(§2) The pre-emergence tests were conducted by the following procedure. Topsoil was sieved to pass through a 1.27 cm screen. Fertilizer was added to the topsoil and the mixture was then sterilized by heating. The topsoil mixture was placed in a pot and compacted to a depth of 1.0 to 1.25 cm from the top of the pot. Seeds of each of several monocotyledonous and dicotyledonous annual plant species were placed on top of the soil. Additional soil was subsequently placed over the seeds to level-fill the pot. A known amount of each test compound dissolved or suspended in an appropriate organic solvent was diluted with a 50:50 mix of acetone and water and applied to the surface of the soil. After treatment the plants were placed in a greenhouse where they received 0.64 cm of overhead irrigation. All subsequent watering consisted of a light overhead mist and/or subirrigation as needed for germination and growth. Tables 5 and 6 below relate to warm season plant species which were placed after pre-emergence treatment in a greenhouse with a 30/21° C. day/night temperature regime. Tables 7 and 8 below relates to cool season plant species placed after pre-emergence treatment in a greenhouse or growth chamber with an 18/13° C. day/night temperature regime.
(§3) Approximately 14 days after planting and treating, the plants were observed and herbicidal efficacy recorded as percent inhibition by comparison with untreated plants.
(§4) The plant species usually regarded as weeds which were utilized in the tests are identified in the tables below according to the following legend, in which “d” indicates a dicotyledonous species and “m” a monocotyledonous species. All monocotyledonous species included in the tests herein are grasses.

SOLNI (black nightshade) = test: Pre-emergence herbicidal activity, warm season; type: in vivo, Solanum nigrum; conditions: GR80 = lowest tested rate (300, 100, 30, 10 g/ha) with 80% or greater inhibition; approx. 14 days after treating; 30/21° C.
Method in brief: (§5)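 GR80 values derive from percent inhibition relative to untreated plants, read roughly 14 days after sowing and pre-emergence soil-surface treatment (compound in 50:50 acetone/water; rates typically 10, 30, 100, 300 g/ha). Warm-season weeds grew at 30/21° C day/night, cool-season ones at 18/13° C; an asterisk marks activity without reaching 80% at the highest rate.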

AMARE (redroot pigweed) = test: Pre-emergence herbicidal activity, warm season; type: in vivo, Amaranthus retroflexus; conditions: GR80 = lowest tested rate (300, 100, 30, 10 g/ha) with 80% or greater inhibition; approx. 14 days after treating; 30/21° C.
Method in brief: as §5

[1] = system: CHEAL (common lambsquarters); test: Pre-emergence herbicidal activity, warm season; type: in vivo, Chenopodium album; conditions: GR80 = lowest tested rate (300, 100, 30, 10 g/ha) with 80% or greater inhibition; approx. 14 days after treating; 30/21° C.
Method in brief: as §5

POROL (common purslane) = test: Pre-emergence herbicidal activity, warm season; type: in vivo, Portulaca oleracea; conditions: GR80 = lowest tested rate (300, 100, 30, 10 g/ha) with 80% or greater inhibition; approx. 14 days after treating; 30/21° C.
Method in brief: as §5

[2] = system: CIRAR (canada thistle (seedling)); test: Pre-emergence herbicidal activity, warm season; type: in vivo, Cirsium arvense; conditions: GR80 = lowest tested rate (300, 100, 30, 10 g/ha) with 80% or greater inhibition; approx. 14 days after treating; 30/21° C.
Method in brief: as §5

ECHCG (barnyardgrass) = test: Pre-emergence herbicidal activity, warm season; type: in vivo, Echinochloa crus-galli; conditions: GR80 = lowest tested rate (300, 100, 30, 10 g/ha) with 80% or greater inhibition; approx. 14 days after treating; 30/21° C.
Method in brief: as §5

[3] = system: PANMI (wild proso millet); test: Pre-emergence herbicidal activity, warm season; type: in vivo, Panicum miliaceum; conditions: GR80 = lowest tested rate (300, 100, 30, 10 g/ha) with 80% or greater inhibition; approx. 14 days after treating; 30/21° C.
Method in brief: (§6)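 Under 18/13 °C (ALOMY, POLCO) or 30/21 °C (PANMI, DIGSA) day/night, pre-emergence soil-surface treatments at 300, 100, 30 and 10 g/ha were evaluated after roughly 14 days. GR80 reflects percent inhibition relative to untreated plants.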

[4] = system: SORHA (johnsongrass (seedling)); test: Pre-emergence herbicidal activity, warm season; type: in vivo, Sorghum halepense; conditions: GR80 = lowest tested rate (300, 100, 30, 10 g/ha) with 80% or greater inhibition; approx. 14 days after treating; 30/21° C.
Method in brief: as §5

SETFA (giant foxtail) = test: Pre-emergence herbicidal activity, warm season; type: in vivo, Setaria faberi; conditions: GR80 = lowest tested rate (300, 100, 30, 10 g/ha) with 80% or greater inhibition; approx. 14 days after treating; 30/21° C.
Method in brief: as §5

[5] = system: BRAPP (broadleaf signalgrass); test: Pre-emergence herbicidal activity, warm season; type: in vivo, Brachiaria platyphylla; conditions: GR80 = lowest tested rate (300, 100, 30, 10 g/ha) with 80% or greater inhibition; approx. 14 days after treating; 30/21° C.
Method in brief: as §5

DIGSA (large crabgrass) = test: Pre-emergence herbicidal activity, warm season; type: in vivo, Digitaria sanguinalis; conditions: GR80 = lowest tested rate (300, 100, 30, 10 g/ha) with 80% or greater inhibition; approx. 14 days after treating; 30/21° C.
Method in brief: as §6

[6] = system: GALAP (catchweed bedstraw); test: Pre-emergence herbicidal activity, cool season; type: in vivo, Galium aparine; conditions: lowest tested rate with 80% or greater inhibition; rates 300, 100, 30, 10 g/ha; about 14 days
Method in brief: as §5

POLCO (wild buckwheat) = test: Pre-emergence herbicidal activity, cool season; type: in vivo, Polygonum convolvulus; conditions: lowest tested rate with 80% or greater inhibition; rates 300, 100, 30, 10 g/ha; about 14 days
Method in brief: as §6

SINAR (wild mustard) = test: Pre-emergence herbicidal activity, cool season; type: in vivo, Sinapis arvensis; conditions: lowest tested rate with 80% or greater inhibition; rates 300, 100, 30, 10 g/ha; about 14 days
Method in brief: as §5

[7] = system: VERPE (creeping speedwell); test: Pre-emergence herbicidal activity, cool season; type: in vivo, Veronica persicaria; conditions: lowest tested rate with 80% or greater inhibition; rates 300, 100, 30, 10 g/ha; about 14 days
Method in brief: as §5

SASKR (russian thistle) = test: Pre-emergence herbicidal activity, cool season; type: in vivo, Salsola kali; conditions: lowest tested rate with 80% or greater inhibition; rates 300, 100, 30, 10 g/ha; about 14 days
Method in brief: as §5

STEME (common chickweed) = test: Pre-emergence herbicidal activity, cool season; type: in vivo, Stellaria media; conditions: lowest tested rate with 80% or greater inhibition; rates 300, 100, 30, 10 g/ha; about 14 days
Method in brief: as §5

[8] = system: LAMPU (purple deadnettle); test: Pre-emergence herbicidal activity, cool season; type: in vivo, Lamium purpureum; conditions: lowest tested rate with 80% or greater inhibition; rates 300, 100, 30, 10 g/ha; about 14 days
Method in brief: as §5

ALOMY (blackgrass) = test: Pre-emergence herbicidal activity, cool season; type: in vivo, Alopecurus myosuroides; conditions: GR80 = lowest tested rate (300, 100, 30, 10 g/ha) with 80% or greater inhibition; approx. 14 days after treating; 18/13° C.
Method in brief: as §6

SETVI (green foxtail) = test: Pre-emergence herbicidal activity, cool season; type: in vivo, Setaria viridis; conditions: GR80 = lowest tested rate (300, 100, 30, 10 g/ha) with 80% or greater inhibition; approx. 14 days after treating; 18/13° C.
Method in brief: as §5

LOLMG (annual ryegrass) = test: Pre-emergence herbicidal activity, cool season; type: in vivo, Lolium multiflorum; conditions: GR80 = lowest tested rate (300, 100, 30, 10 g/ha) with 80% or greater inhibition; approx. 14 days after treating; 18/13° C.
Protocol: as §1, §2, §3, §4

AVEFA (wild oat) = test: Pre-emergence herbicidal activity, cool season; type: in vivo, Avena fatua; conditions: GR80 = lowest tested rate (300, 100, 30, 10 g/ha) with 80% or greater inhibition; approx. 14 days after treating; 18/13° C.
Protocol: as §1, §2, §3, §4

[9] = system: AGSST (creeping bentgrass); test: Pre-emergence herbicidal activity, cool season; type: in vivo, Agrostis stolonifera; conditions: GR80 = lowest tested rate (300, 100, 30, 10 g/ha) with 80% or greater inhibition; approx. 14 days after treating; 18/13° C.
Method in brief: as §5

SORVU (shattercane) = test: Pre-emergence herbicidal activity, warm season; type: in vivo, Sorghum vulgare; conditions: GR80 = lowest tested rate (300, 100, 30, 10 g/ha) with 80% or greater inhibition; approx. 14 days after treating; 30/21° C.
Method in brief: as §5

BROTE (downy brome) = test: Pre-emergence herbicidal activity, cool season; type: in vivo, Bromus tectorum; conditions: GR80 = lowest tested rate (300, 100, 30, 10 g/ha) with 80% or greater inhibition; approx. 14 days after treating; 18/13° C.
Protocol: as §1, §2, §3, §4

CONAR (field bindweed) = test: Pre-emergence herbicidal activity, warm season; type: in vivo, Convolvulus arvensis; conditions: GR80 = lowest tested rate (300, 100, 30, 10 g/ha) with 80% or greater inhibition; approx. 14 days after treating; 30/21° C.
Protocol: as §1, §2, §3, §4

| Structure (SMILES) | Pre-emergence activity (GR80) ABUTH (ABUTH (velvetleaf)) [g/ha] | Pre-emergence activity (GR80) CHEAL [1] [g/ha] | Pre-emergence activity (GR80) PANMI [3] [g/ha] | Pre-emergence activity GR80, GALAP [6] | Pre-emergence activity GR80, POLCO (POLCO (wild buckwheat)) | Pre-emergence activity GR80, SINAR (SINAR (wild mustard)) | Pre-emergence activity GR80, VERPE [7] | Pre-emergence activity GR80, SASKR (SASKR (russian thistle)) | Pre-emergence activity GR80, STEME (STEME (common chickweed)) | Pre-emergence activity GR80, LAMPU [8] | Pre-emergence activity (GR80) ALOMY (ALOMY (blackgrass)) [g/ha] | Pre-emergence activity (GR80) SETVI (SETVI (green foxtail)) [g/ha] | Pre-emergence activity (GR80) LOLMG (LOLMG (annual ryegrass)) [g/ha] | Pre-emergence activity (GR80) AGSST [9] [g/ha] | further results |
| --- | --- | --- | --- | --- | --- | --- | --- | --- | --- | --- | --- | --- | --- | --- | --- |
| CCCN(CC)C(=O)n1cnc(S(=O)(=O)C(F)(F)C(F)F)n1 [Example 63] | 300 | 100 | 100 | 30 g/ha | 300 g/ha | 30 g/ha | 30 g/ha | 30 g/ha | 30 g/ha | 30 g/ha | 300 | 100 | 100 | 10 | Pre-emergence activity (GR80) SOLNI (SOLNI (black nightshade)): 300 g/ha; Pre-emergence activity (GR80) AMARE (AMARE (redroot pigweed)): 100 g/ha; Pre-emergence activity (GR80) POROL (POROL (common purslane)): 300 g/ha; Pre-emergence activity (GR80) CIRAR [2]: 300 g/ha; Pre-emergence activity (GR80) ECHCG (ECHCG (barnyardgrass)): 100 g/ha; Pre-emergence activity (GR80) SORHA [4]: 100 g/ha; Pre-emergence activity (GR80) SETFA (SETFA (giant foxtail)): 100 g/ha; Pre-emergence activity (GR80) BRAPP [5]: 300 g/ha; Pre-emergence activity (GR80) DIGSA (DIGSA (large crabgrass)): 300 g/ha; Pre-emergence activity (GR80) AVEFA (AVEFA (wild oat)): 300 g/ha |
| CN(C(=O)n1cnc(S(=O)(=O)C(F)(F)Cl)n1)C1CCCCC1 [Example 91] | 300 | – | 100 | 100 g/ha | 100 g/ha | 10 g/ha | 10 g/ha | 30 g/ha | 30 g/ha | 30 g/ha | 300 | 300 | 300 | 100 | Pre-emergence activity (GR80) SORVU (SORVU (shattercane)): 300 g/ha; Pre-emergence activity (GR80) BROTE (BROTE (downy brome)): 300 g/ha |
| CN(Cc1ccccc1)C(=O)n1cnc(S(=O)(=O)C(F)(F)Cl)n1 [Example 92] | – | 300 | – | [empty] | [empty] | [empty] | [empty] | [empty] | [empty] | [empty] | – | – | – | – | Pre-emergence activity (GR80) CONAR (CONAR (field bindweed)): 300 g/ha |
